According to the supplement of paper PMC10307832:

Tests used:
Test in all cases: relative viability (nuclei count vs DMSO), 5 days (fraction); higher = more cells survive
Vandetanib + OSI-027 = compound: COc1cc2/c(=N/c3ccc(Br)cc3F)nc[nH]c2cc1OCC1CCN(C)CC1 [Vandetanib] + COc1cccc2cc(-c3nc([C@H]4CC[C@H](C(=O)O)CC4)n4ncnc(N)c34)[nH]c12 [OSI-027] (partner 0.5 µM)
How it was run: (§1)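 Five library-drug doses in √10 steps were combined with a fixed anchor-drug dose, or a single drug was given alone, by pin tool to lung cancer cell lines in 1536-well plates the day after seeding. Nuclei were stained and counted after 5 days. Relative viability is the nuclei count in treated wells over that in vehicle wells, taken as the median of duplicate plates.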

CUDC-101 + Bortezomib = compound: C#Cc1cccc(Nc2ncnc3cc(OC)c(OCCCCCCC(=O)NO)cc23)c1 [CUDC-101] + CC(C)C[C@H](NC(=O)[C@H](Cc1ccccc1)NC(=O)c1cnccn1)B(O)O [Bortezomib] (partner 0.002 µM)
How it was run: as §1

NVP-TAE684 + Lapatinib = compound: COc1cc(N2CCC(N3CCN(C)CC3)CC2)ccc1Nc1ncc(Cl)c(Nc2ccccc2S(=O)(=O)C(C)C)n1 [NVP-TAE684] + CS(=O)(=O)CCNCc1ccc(-c2ccc3ncnc(Nc4ccc(OCc5cccc(F)c5)c(Cl)c4)c3c2)o1 [Lapatinib] (partner 2 µM)
How it was run: as §1

Vandetanib + Pictilisib = compound: COc1cc2/c(=N/c3ccc(Br)cc3F)nc[nH]c2cc1OCC1CCN(C)CC1 [Vandetanib] + CS(=O)(=O)N1CCN(Cc2cc3nc(-c4cccc5[nH]ncc45)nc(N4CCOCC4)c3s2)CC1 [Pictilisib] (partner 1 µM)
How it was run: as §1

UMC-11
relative viability (Vandetanib + OSI-027; first compound 0.02 µM): 0.472
relative viability (Vandetanib + OSI-027; first compound 0.06325 µM): 0.416
relative viability (Vandetanib + OSI-027; first compound 0.2 µM): 0.45
relative viability (Vandetanib + OSI-027; first compound 0.6325 µM): 0.443
relative viability (Vandetanib + OSI-027; first compound 2 µM): 0.467
relative viability (CUDC-101 + Bortezomib; first compound 0.01 µM): 0.918
relative viability (CUDC-101 + Bortezomib; first compound 0.03162 µM): 0.831
relative viability (CUDC-101 + Bortezomib; first compound 0.1 µM): 0.468
relative viability (CUDC-101 + Bortezomib; first compound 0.3162 µM): 0.576
relative viability (CUDC-101 + Bortezomib; first compound 1 µM): 0.167
relative viability (NVP-TAE684 + Lapatinib; first compound 0.2 µM): 1.03
relative viability (NVP-TAE684 + Lapatinib; first compound 0.6325 µM): 0.778
relative viability (NVP-TAE684 + Lapatinib; first compound 2 µM): 0.683
relative viability (Vandetanib + Pictilisib; first compound 0.02 µM): 0.75
relative viability (Vandetanib + Pictilisib; first compound 0.06325 µM): 0.78
relative viability (Vandetanib + Pictilisib; first compound 0.2 µM): 0.694
relative viability (Vandetanib + Pictilisib; first compound 0.6325 µM): 0.667
relative viability (Vandetanib + Pictilisib; first compound 2 µM): 0.857
